Results: US5885834A, “Antisense oligodeoxynucleotide against phosphodiesterase” (priority 1997, dated 1999)

Tested on: RPMI 8392 cells
Assay: Apoptosis by endonuclease-digested DNA (DNA laddering) on agarose gels
Assay type: cell-based, human
Details: RPMI 8392 cells
Procedure: The preferred method for testing the ability of AS ODN to induce apoptosis as determined by detection of endonuclease digested DNA on agarose gels employs the following sequence:
(2) Cells are grown to ≈10^6 /ml, collected by centrifugation for 5 min. at 300×g (1000 rpm in an IEC Model K centrifuge), resuspended in growth medium to 10^6 cells/ml, and placed in a 24 well tissue culture plate at 1 ml/well. The cell volumes are kept to a minimum (i.e., -1 ml), in order to reduce the amount of ODN needed. The fetal bovine serum used in the growth medium for this step is heat-inactivated at 65° C. for 1 hr. to minimize serum nuclease activity.
(4) Cells are then incubated for varying times, usually 1-3 days, following which the DNA is isolated.
The supernatant is aspirated down to ≈50 μl of volume and the cell pellet is resuspended in this remaining small volume.
(6) About 400 μl of cold cell lysis buffer (50 mM Tris-HCl, pH 7.5, 10 mM EDTA, 1% Triton X-100) is then added.
(9) The upper, aqueous phase is transferred to a fresh microfuge tube and 250 μl of phenol and 250 μl of chloroform are added, the mixture gently vortexed for 5 sec., and centrifuged at 16,650×g for 5 min.
(10) The upper, aqueous phase is again transferred to a fresh microfuge tube and 500 μl of chloroform is added, followed by gentle vortexing and centrifugation at 16,650×g for 3 min.
(11) The upper, aqueous phase is again transferred to a fresh microfuge tube, 3M sodium acetate (pH 5.2) is added to a final concentration of 0.3M, and 2.5 volumes of ice cold 100% ethanol is added. The solution is left overnight at -20° C. to precipitate the DNA.
(12) The DNA is collected by centrifugation at 16,650×g for 15 min., the supernatant decanted, and the pellet air dried for ≈30-60 min. at room temperature. The DNA pellet is then dissolved in 50 μl of pH 8.0 TE buffer at room temperature overnight.
(13) One μl of a 4 mg/ml solution of DNase-free RNase A is then added to the DNA and incubation is carried out at 37° C. for 30 min. This step is necessary to prevent contaminating RNA from obscuring the gel.
(14) Thirty μl of DNA solution is then mixed with 6 μl of 6× loading buffer and run on a 2% agarose gel, containing 0.5 μg/ml ethidium bromide, in 0.5× TBE buffer (45 mM Tris-borate, 1 mM EDTA, pH 8.0) at ≈50 V for ≈1.5 hr. The 6× loading buffer used is 0.25% xylene cyanol and 30% glycerol. The use of bromophenol blue is omitted for this analysis because it tends to obscure the visualization of the DNA ladder pattern.
(15) The gel is then visualized and photographed under UV light.
The effect of pharmacological inhibition of each of these PDE activities on induction of apoptosis in RPMI 8392 cells was tested, using the appearance of oligonucleosome length fragments of endonuclease digested DNA as a measure of apoptosis.
Markers (lane 1 in both gels) are 1 kb DNA ladder size markers from GIBCO/BRL.
Cells (10^6) were collected by centrifugation at 670×g for 5 min. The cell pellets were rinsed once with 0.2M dibasic sodium phosphate and lysed in 300 μl of lysis buffer (50 mM Tris/HCl pH 7.5, 10 mM EDTA, 1% V/V Triton X-100) for 20 min on ice. Proteinase K was added to 0.5 mg/ml and DNase-free RNase was added to 50 μg/ml and the extract incubated at 37° C. for 1 hr. DNA was then extracted in phenol/chloroform (1:1) and chloroform (1:1) and precipitated in 2.5 volumes of ethanol. The extracted DNA was electrophoresed on 2% agarose gels, the gels stained with 0.5 μg/ml ethidium bromide and photographed under UV light.
Experiments were conducted to determine if inhibition of the expression of the gene for PDE1B1 could induce apoptosis.

Row | Substance | Induction of apoptosis (DNA fragmentation) (10 μM ODN, 3 days) | Induction of apoptosis (DNA fragmentation) (30 μM ODN, 2 days (48 hr)) | Induction of apoptosis (DNA fragmentation) (30 μM ODN, 3 days) | Induction of apoptosis (DNA fragmentation) (any concentration tested (0.3-30 μM), 1, 2 and 3 days)
1 | 5'-GGACAGCTCCATGCTCAG-3' (phosphorothioate, further chemistry not given here) [AS ODN, 18 nt phosphorothioate antisense oligodeoxynucleotide targeted against the translation initiation region of PDE1B1] | induced apoptosis | clearly induced apoptosis | induced apoptosis | –
2 | 5'-TACGTGAGGCACCTACGC-3' (phosphorothioate, further chemistry not given here) [NS ODN, control phosphorothioate nonsense ODN, same base composition as the AS ODN in random, scrambled order] | – | did not | – | no effect
